In patent US4943566A, “Novel 17-aryl-steroids” (Roussel Uclafi, priority 1987, dated 1990):

Experiments:
[1] = target: T1, glucocorticoid receptor, rat thymus (Rattus norvegicus, UniProt P06536); experiment: Relative binding affinity (ARL), glucocorticoid receptor of rat thymus; conditions: rat thymus cytosol, tritiated dexamethasone, cold reference dexamethasone; for relative affinity of the bond (ARL), Glucocorticoid, 2H: incubation 2H at 0° C.; for relative affinity of the bond (ARL), Glucocorticoid, 24H: incubation 24H at 0° C.
T1 construct: The second test was a glucocrticoid receptor test on rat thymus; from tissue; host or cells: thymus of adrenalectomized male Sprague Dawley EOPS rats, 105,000 g supernatant (cytosol)
T1 sequence (P06536 1-795): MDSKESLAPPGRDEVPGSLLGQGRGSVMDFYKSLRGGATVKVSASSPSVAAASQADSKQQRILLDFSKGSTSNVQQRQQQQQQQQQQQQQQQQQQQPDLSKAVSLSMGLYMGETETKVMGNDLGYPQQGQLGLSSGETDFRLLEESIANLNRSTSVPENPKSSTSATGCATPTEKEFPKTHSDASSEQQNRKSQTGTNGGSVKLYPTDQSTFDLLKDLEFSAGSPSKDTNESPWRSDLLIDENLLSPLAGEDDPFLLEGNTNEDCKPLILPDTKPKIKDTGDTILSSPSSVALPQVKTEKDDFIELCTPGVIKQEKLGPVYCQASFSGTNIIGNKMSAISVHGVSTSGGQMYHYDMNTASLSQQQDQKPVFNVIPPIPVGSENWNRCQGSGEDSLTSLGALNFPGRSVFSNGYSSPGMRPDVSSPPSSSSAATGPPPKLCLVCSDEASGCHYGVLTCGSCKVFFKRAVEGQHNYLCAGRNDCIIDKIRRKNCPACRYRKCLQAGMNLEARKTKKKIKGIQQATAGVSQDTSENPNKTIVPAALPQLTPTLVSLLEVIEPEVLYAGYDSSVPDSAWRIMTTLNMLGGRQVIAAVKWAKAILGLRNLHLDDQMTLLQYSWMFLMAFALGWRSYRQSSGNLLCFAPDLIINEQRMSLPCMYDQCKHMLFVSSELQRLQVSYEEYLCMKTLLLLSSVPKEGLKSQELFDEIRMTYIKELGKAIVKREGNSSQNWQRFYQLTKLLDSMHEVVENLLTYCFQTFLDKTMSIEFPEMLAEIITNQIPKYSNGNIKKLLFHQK
Procedure: The second test was a glucocrticoid receptor test on rat thymus in which male rats of the Sprague Dawley EOPS strain weighing 160 to 200 g were surrenalectomized. 4 to 8 days after this ablation, the animals were killed and the thymus was removed and homogenized at 0° C. in a buffered TS solution. (Tris 10 mM, 0.25M saccharose, 2 mM dithiothreitol, HCl pH 7.4) with a Potter tetrafluoroethylene-glass (1 g of tissue per 10 ml/TS). The homogenate was ultracentrifuged at 105,000 for 90 minutes at 0° C. and the surnageant samples were incubated at 0° C. for a time t with a constant concentration T of tritiated dexamethasone in the presence of increasing concentrations (0-2500×10^-9 M) or cold dexamethasone or cold test compound. The concentration B of bound tritiated dexamethasone was measured for each incubate by carbon-dextran absorption technique.
(§1) The relative affinity of the bond (ARL) was calculated in the same for the receptors. One traced the following 2 curves: the percentage of bond tritiated hormone B/T as a logarithmic function of the concentration of the cold reference hormone and B/T as a logarithmic function of the concentration of the cold test compound. Using the equation [formula] B/T max.=% of bound tritiated hormone for one incubation of tritiated hormone at concentration (T)
(§2) B/T min.=% of bound tritiated hormone for one incubation of tritiated hormone at a concentration T in the presence of a great excess of cold hormone (2500×10^-9 M).
(§3) The intersections of I50 lines and the curves permit an evaluation of the hormone concentration of the cold reference (CH) and the cold test compound (CX) which inhibited by 50% the bounding of tritiated hormone to the receptor. The ARL of the test compound was determined by the equation. [formula] and the following results were obtained.

[2] = target: T2, progesterone receptors of rabbit uterus (Oryctolagus cuniculus, UniProt P06186); experiment: Relative binding affinity (ARL), progesterone receptors of rabbit uterus; conditions: rabbit uterus cytosol, tritiated 17,21-dimethyl-19-nor-Δ4,9-pregnadiene-3,20-dione, cold reference hormone progesterone; for relative affinity of the bond (ARL), Progestogen, 2H: incubation 2H at 0° C.; for relative affinity of the bond (ARL), Progestogen, 24H: incubation 24H at 0° C.
T2 construct: The first test was on the progesterone receptors of rabbit uterus; from tissue; host or cells: uterus of estradiol-treated immature rabbits, 105,000 g supernatant (cytosol)
T2 sequence (P06186 1-930): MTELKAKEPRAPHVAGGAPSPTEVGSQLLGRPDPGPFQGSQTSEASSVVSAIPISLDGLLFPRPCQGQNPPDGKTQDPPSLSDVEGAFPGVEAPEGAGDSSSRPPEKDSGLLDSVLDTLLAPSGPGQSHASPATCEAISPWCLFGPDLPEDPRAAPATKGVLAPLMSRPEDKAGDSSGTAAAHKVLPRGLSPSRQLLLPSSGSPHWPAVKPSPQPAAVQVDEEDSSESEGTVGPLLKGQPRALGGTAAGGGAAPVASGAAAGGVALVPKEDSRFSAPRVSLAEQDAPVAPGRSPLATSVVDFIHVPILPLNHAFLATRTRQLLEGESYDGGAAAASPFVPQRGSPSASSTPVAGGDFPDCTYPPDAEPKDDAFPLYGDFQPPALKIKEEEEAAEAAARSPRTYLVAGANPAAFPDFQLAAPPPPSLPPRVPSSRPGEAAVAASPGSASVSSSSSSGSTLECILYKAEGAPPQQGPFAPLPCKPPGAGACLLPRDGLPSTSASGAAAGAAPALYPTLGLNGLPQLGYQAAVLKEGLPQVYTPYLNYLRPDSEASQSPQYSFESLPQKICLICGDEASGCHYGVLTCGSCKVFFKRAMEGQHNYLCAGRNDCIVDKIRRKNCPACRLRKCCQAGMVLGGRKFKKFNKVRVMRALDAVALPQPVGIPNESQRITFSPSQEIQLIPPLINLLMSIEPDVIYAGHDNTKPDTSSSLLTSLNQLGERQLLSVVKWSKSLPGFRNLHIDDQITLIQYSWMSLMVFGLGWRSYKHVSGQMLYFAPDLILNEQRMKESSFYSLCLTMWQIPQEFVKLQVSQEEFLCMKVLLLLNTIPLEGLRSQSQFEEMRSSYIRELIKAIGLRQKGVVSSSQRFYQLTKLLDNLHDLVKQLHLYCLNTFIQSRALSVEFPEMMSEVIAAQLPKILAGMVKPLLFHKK
Procedure: The first test was on the progesterone receptors of rabbit uterus in which immature rabbits weighing about 1 kg received a cutaneous application of […] of estradiol and 5 days after treatment, the animals were sacrificed. The […] was removed, weighed and homogenized at 0° C. with a Potter Teflon-glass ina buffered solution. TS (Tris 10 mM, 0.25M Saccharose, HCl, pH 7.4) (1 g of tissue per 50 ml of TS). The homogenate was ultracentrifuged at 105,000 g×90 minutes at 0° C. The surnageant samples were incubated at a time at (t) 0° C. with a constant concentration (T) of tritiated product (R) which is 17,21-dimethyl-19-nor-Δ^4,9 -pregnadiene-3,20-dione in the presence of increasing concentrations from 0 to 2500×10^-9 M or cold R or cold progestenone or cold test compound. The concentration of bound tritiated R was measured for each incubate by absorption technique on dextran carbon.
as §1, §2, §3

Structure (SMILES)	relative affinity of the bond (ARL), Glucocorticoid, 2H [1]	relative affinity of the bond (ARL), Glucocorticoid, 24H [1]	relative affinity of the bond (ARL), Progestogen, 2H [2]	relative affinity of the bond (ARL), Progestogen, 24H [2]
COc1ccc([C@H]2C[C@@]3(C)[C@@H](CC[C@@]3(O)c3ccc(OC)cc3)[C@@H]3CCC4=CC(=O)CCC4=C32)cc1 [Example 1, 11β,17α-bis-(4-methoxy-phenyl)-Δ^4,9-estradiene-17β-ol-3-one]	94	68	48	259
CN(C)c1ccc([C@H]2C[C@@]3(C)[C@@H](CC[C@@]3(O)c3ccc(O)cc3)[C@@H]3CCC4=CC(=O)CCC4=C32)cc1 [Example 6, 11β-(4-dimethylamino-phenyl)-17α-(4-hydroxy-phenyl)-Δ^4,9-estradiene-17β-ol-3-one]	133	97	33	35
CSc1ccc([C@H]2C[C@@]3(C)[C@@H](CC[C@@]3(O)c3ccc(N(C)C)cc3)[C@@H]3CCC4=CC(=O)CCC4=C32)cc1 [Example 7, 11β-(4-methylthio-phenyl)-17α-(4-dimethylamino-phenyl)-Δ^4,9-estraidene-17β-ol-3-one]	71	57	32	150
Cc1ccc([C@]2(O)CC[C@H]3[C@@H]4CCC5=CC(=O)CCC5=C4[C@@H](c4ccc(N(C)C)cc4)C[C@@]32C)cc1 [Example 9, 11β-(4-dimethylamino-phenyl)-17α-(4-methyl-phenyl)-Δ^4,9-estradiene-17β-ol-3-one]	39	40	22	110
COc1cccc([C@]2(O)CC[C@H]3[C@@H]4CCC5=CC(=O)CCC5=C4[C@@H](c4ccc(N(C)C)cc4)C[C@@]32C)c1 [Example 12 (Product A), 11β-(4-dimethylamino-phenyl)-17α-(3-methoxy-phenyl)-Δ^4,9-estradiene-17β-ol-3-one]	90	76	24	131
CN(C)c1ccc([C@H]2C[C@@]3(C)[C@@H](CC[C@@]3(O)c3cccc(O)c3)[C@@H]3CCC4=CC(=O)CCC4=C32)cc1 [Example 13 (Product A), 11β-(4-dimethylamino-phenyl)-17α-(3-hydroxy-phenyl)-Δ^4,9-estradiene-17β-ol-3-one]	153	145	34	122
CN(C)c1ccc([C@H]2C[C@@]3(C)[C@@H](CC[C@@]3(O)c3ccccc3)[C@@H]3CCc4cc(O)ccc4[C@H]32)cc1 [Example 14, 11β-(4-dimethylamino-phenyl)-17α-phenyl-Δ^1,3,5(10) -estratriene-3,17β-diol]	98	129	5	67

The remaining lines, values ahead:

relative affinity of the bond (ARL), Glucocorticoid, 2H [1]	relative affinity of the bond (ARL), Glucocorticoid, 24H [1]	relative affinity of the bond (ARL), Progestogen, 2H [2]	relative affinity of the bond (ARL), Progestogen, 24H [2]	Structure (SMILES)
106	112	47	189	CN(C)c1ccc([C@H]2C[C@@]3(C)[C@@H](CC[C@@]3(O)c3ccccc3O)[C@@H]3CCC4=CC(=O)CCC4=C32)cc1 [Example 10, 11β-(4-dimethylamino-phenyl)-17α-(2-hydroxy-phenyl)-Δ^4,9-estradiene-17β-ol-3-one]
56	45	38	230	COc1ccccc1[C@]1(O)CC[C@H]2[C@@H]3CCC4=CC(=O)CCC4=C3[C@@H](c3ccc(N(C)C)cc3)C[C@@]21C [Example 11 (Product A), 11β-(4-dimethylamino-phenyl)-17α-(2-methoxy-phenyl)-Δ^4,9-estradiene-17β-ol-3-one]
47	40	12	49	COc1ccccc1[C@@]1(O)CC[C@H]2[C@@H]3CCC4=CC(=O)CCC4=C3[C@@H](c3ccc(N(C)C)cc3)C[C@@]21C [Example 11 (Product B), 11β-(4-dimethylamino-phenyl)-17β-(2-methoxy-phenyl)-Δ^4,9-estradiene-17α-ol-3-one]
76	63	1,9	1,7	CN(C)c1ccc([C@H]2C[C@@]3(C)[C@@H](CC[C@]3(O)c3cccc(O)c3)[C@@H]3CCC4=CC(=O)CCC4=C32)cc1 [Example 13 (Product B), 11β-(4-dimethylaminophenyl)-17β-(3-hydroxy-phenyl)-Δ^4,9-estradiene-17α-ol-3-one]
